Assay results as given in US20260356819A1, “OXOISOINDOLINYL-SUBSTITUTED […] DERIVATIVE AND USE THEREOF” (GLUETACS THERAPEUTICS (SHANGHAI) CO., LTD., priority 2023, published 2026).

Columns and labels:
MM.1S cells = experiment: Inhibition of proliferation of multiple myeloma cells MM.1S (cell viability assay, 96 h); assay type: cell-based, human; details: read-out: inhibitory activity (IC50) against tumor cells proliferation, MM.1S
MGC803 cells = experiment: Inhibition of proliferation of gastric cancer cells MGC803 (cell viability assay, 96 h); assay type: cell-based, human; details: read-out: inhibitory activity (IC50) against tumor cells proliferation, MGC803
Protocol: (§1) The tumor cells used herein were cultured in a cell culture medium listed in table 2 at 37 °C in an incubator with 5% CO2. Prior to experimentation, all cell lines used were correctly identified by STR profiling, and tested negative for Mycoplasma contamination using a Mycoplasma detection kit through routine screenings.
The IC50 values of the compounds of the present disclosure (including the compounds in Table 1, and Examples 1-498) were determined using the CellTiter-Meiluncell Luminescent Cell Viability Assay Kit from Dalian Meilun Biotech Co., Ltd. The detailed procedure is as follows: Tumor cells were seeded in 96-well cell culture plates at the densities specified in Table 3. On the following day, the test compounds of the present disclosure were subjected to serial dilution. […] Subsequently, 0.5 μL of the test compound dilution was transferred into the 96-well plate containing the cells, with each well containing 100 μL of cell culture medium. […] Into the 96-well plate, the diluted test compounds and corresponding detection reagents were added, resulting in final test compound concentrations of 500 nM and 10 nM, respectively. The experimental procedure is described below using the diluted 2 μM test compound as an example.
0.5 μL of the aforementioned diluted compound of the present disclosure (including the compounds in Table 1, and Examples 1-498) was added to the seeded cells in 100 μL of medium, yielding a final test compound concentration of 10 nM. After the cells were treated with the compounds of the present disclosure for a specified period, the cell viability assay reagent was added to the culture medium according to the kit's instructions to determine cell viability. […] All controls were treated using the same procedure as the compounds of the present disclosure. The growth inhibition curves for the compounds of the present disclosure were plotted using Prism GraphPad software, and the IC50 values were calculated therefrom.

Jurkat cells = experiment: Inhibition of proliferation of T lymphocytic leukemia cells Jurkat (cell viability assay, 96 h); assay type: cell-based, human; details: read-out: inhibitory activity (IC50) against tumor cells proliferation, Jurkat
WEE1 = target: T1, WEE1 (Homo sapiens, UniProt P30291+Q96SW2); experiment: Western blot degradation of WEE1 in hPBMCs (24 h); assay type: cell-based; details: compounds at 50 nM and 500 nM
T1 construct: The supernatant was aspirated as the extracted total cell protein; endogenous in cells; host or cells: human peripheral blood mononuclear cells (hPBMCs)
Summary of the method: (§2)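 Degradation in primary human PBMCs after 24 h compound exposure at 50 and 500 nM. Western blot band intensities, normalised to an internal control protein, expressed as % protein remaining relative to DMSO.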

IKZF1 = target: T2, IKZF1 (Homo sapiens, UniProt Q13422+Q96SW2); experiment: Western blot degradation of IKZF1 in hPBMCs (24 h); assay type: cell-based; details: compounds at 50 nM and 500 nM
T2 construct: The supernatant was aspirated as the extracted total cell protein; endogenous in cells; host or cells: human peripheral blood mononuclear cells (hPBMCs)
T2 sequence (Q13422 whole entry): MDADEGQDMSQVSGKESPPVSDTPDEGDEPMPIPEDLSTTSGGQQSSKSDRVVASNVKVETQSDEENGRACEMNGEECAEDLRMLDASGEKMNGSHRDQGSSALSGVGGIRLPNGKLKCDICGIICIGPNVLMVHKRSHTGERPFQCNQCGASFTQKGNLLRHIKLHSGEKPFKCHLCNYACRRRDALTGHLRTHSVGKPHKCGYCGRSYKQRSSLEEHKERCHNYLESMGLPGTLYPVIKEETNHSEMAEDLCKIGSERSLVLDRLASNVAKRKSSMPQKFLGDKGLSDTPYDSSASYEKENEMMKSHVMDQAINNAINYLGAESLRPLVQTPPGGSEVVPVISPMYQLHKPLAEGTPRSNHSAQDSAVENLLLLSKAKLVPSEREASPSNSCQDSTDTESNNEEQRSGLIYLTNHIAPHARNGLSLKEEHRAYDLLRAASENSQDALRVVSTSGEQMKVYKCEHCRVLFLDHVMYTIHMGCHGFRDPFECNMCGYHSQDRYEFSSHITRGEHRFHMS
T2 sequence (Q96SW2 whole entry): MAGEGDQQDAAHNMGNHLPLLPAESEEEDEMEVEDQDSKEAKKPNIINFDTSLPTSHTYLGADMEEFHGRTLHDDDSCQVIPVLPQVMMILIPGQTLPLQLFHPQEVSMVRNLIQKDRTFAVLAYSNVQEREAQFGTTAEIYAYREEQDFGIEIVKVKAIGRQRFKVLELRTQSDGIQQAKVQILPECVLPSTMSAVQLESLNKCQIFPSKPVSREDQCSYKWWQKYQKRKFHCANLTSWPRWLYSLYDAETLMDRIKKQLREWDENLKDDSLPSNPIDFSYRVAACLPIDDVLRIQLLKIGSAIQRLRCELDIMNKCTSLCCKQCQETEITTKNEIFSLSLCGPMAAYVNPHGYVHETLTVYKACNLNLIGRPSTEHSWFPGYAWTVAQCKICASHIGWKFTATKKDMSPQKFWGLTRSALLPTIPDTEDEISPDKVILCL
T2 sequence (Q16531 whole entry partner): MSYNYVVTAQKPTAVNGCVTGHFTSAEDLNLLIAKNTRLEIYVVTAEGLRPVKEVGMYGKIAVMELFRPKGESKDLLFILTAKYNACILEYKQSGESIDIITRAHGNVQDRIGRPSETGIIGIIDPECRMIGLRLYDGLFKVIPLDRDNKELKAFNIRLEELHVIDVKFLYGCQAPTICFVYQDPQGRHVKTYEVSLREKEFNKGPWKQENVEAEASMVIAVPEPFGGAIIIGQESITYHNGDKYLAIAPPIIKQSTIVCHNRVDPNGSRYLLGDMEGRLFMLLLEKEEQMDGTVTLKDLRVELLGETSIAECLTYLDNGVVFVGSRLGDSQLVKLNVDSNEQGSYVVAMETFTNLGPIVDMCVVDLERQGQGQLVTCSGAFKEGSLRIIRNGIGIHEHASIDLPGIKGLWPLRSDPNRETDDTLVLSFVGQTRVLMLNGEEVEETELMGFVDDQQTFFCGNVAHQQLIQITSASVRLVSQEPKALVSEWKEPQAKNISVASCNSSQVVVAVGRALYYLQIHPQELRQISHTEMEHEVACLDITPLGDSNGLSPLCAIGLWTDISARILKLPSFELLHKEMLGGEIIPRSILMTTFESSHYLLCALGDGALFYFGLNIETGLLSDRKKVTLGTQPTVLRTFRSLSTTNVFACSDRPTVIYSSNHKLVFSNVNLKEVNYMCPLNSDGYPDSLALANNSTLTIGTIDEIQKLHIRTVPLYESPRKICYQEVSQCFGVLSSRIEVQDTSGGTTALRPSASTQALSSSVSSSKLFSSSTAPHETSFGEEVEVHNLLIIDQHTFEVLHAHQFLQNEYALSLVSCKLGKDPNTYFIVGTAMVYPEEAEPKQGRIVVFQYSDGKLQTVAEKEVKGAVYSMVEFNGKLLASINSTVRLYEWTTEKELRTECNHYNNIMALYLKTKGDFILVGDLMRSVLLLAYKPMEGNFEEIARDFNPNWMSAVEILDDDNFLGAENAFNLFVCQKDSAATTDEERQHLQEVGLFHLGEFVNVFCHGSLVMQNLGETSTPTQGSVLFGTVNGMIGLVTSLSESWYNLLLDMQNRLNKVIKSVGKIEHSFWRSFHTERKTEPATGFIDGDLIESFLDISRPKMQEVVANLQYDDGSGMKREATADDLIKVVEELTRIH
Summary of the method: as §2

IKZF2 = target: T3, IKZF2 (Homo sapiens, UniProt Q96SW2+Q9UKS7); experiment: Western blot degradation of IKZF2 in hPBMCs (24 h); assay type: cell-based; details: compounds at 50 nM and 500 nM
T3 construct: The supernatant was aspirated as the extracted total cell protein; endogenous in cells; host or cells: human peripheral blood mononuclear cells (hPBMCs)
T3 sequence (Q9UKS7 whole entry): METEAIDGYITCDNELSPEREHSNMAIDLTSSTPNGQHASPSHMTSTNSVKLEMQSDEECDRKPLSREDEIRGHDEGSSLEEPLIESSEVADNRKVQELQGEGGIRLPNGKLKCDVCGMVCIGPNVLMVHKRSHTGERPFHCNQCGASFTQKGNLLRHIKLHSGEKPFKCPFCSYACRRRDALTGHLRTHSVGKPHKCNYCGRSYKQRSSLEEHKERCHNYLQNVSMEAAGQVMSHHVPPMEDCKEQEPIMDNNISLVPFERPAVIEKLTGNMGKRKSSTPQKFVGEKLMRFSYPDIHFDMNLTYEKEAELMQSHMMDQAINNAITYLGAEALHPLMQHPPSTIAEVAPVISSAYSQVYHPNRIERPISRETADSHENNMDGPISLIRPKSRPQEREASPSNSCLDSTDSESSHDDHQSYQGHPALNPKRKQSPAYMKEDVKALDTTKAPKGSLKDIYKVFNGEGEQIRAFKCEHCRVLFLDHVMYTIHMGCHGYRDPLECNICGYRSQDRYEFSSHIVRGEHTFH
T3 sequence (Q96SW2 whole entry): as the sequence (Q96SW2 whole entry) above
T3 sequence (Q16531 whole entry partner): as the sequence (Q16531 whole entry partner) above
Summary of the method: as §2

IKZF3 = target: T4, IKZF3 (Homo sapiens, UniProt Q96SW2+Q9UKT9); experiment: Western blot degradation of IKZF3 in hPBMCs (24 h); assay type: cell-based; details: compounds at 50 nM and 500 nM
T4 construct: The supernatant was aspirated as the extracted total cell protein; endogenous in cells; host or cells: human peripheral blood mononuclear cells (hPBMCs)
T4 sequence (Q9UKT9 whole entry): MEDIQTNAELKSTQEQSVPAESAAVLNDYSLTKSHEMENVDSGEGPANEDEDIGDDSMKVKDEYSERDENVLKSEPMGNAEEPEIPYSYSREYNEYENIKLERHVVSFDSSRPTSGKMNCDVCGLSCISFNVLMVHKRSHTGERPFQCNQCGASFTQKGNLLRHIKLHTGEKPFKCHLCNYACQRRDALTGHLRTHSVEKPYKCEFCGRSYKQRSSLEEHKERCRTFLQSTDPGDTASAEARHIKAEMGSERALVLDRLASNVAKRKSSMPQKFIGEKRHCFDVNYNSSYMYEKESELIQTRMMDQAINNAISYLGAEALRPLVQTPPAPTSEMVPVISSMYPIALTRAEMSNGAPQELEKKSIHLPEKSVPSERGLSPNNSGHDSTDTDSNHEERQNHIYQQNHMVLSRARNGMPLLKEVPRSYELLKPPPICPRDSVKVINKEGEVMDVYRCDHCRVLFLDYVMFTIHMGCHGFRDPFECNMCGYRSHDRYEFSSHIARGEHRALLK
T4 sequence (Q96SW2 whole entry): as the sequence (Q96SW2 whole entry) above
T4 sequence (Q16531 whole entry partner): as the sequence (Q16531 whole entry partner) above
Summary of the method: as §2

CK1α = target: T5, CK1α (Homo sapiens, UniProt P48729+Q96SW2); experiment: Western blot degradation of CK1α in hPBMCs (24 h); assay type: cell-based; details: compounds at 50 nM and 500 nM
T5 construct: The supernatant was aspirated as the extracted total cell protein; endogenous in cells; host or cells: human peripheral blood mononuclear cells (hPBMCs)
T5 sequence (P48729 whole entry): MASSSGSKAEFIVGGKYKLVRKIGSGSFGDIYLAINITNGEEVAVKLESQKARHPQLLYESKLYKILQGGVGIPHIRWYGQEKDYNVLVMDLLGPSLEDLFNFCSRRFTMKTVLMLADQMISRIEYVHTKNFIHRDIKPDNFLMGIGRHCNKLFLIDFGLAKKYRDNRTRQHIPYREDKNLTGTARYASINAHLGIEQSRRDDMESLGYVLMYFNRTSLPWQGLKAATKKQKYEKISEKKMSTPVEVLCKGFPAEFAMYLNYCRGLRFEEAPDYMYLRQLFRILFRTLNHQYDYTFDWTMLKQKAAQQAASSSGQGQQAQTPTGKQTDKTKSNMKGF
T5 sequence (Q96SW2 whole entry): as the sequence (Q96SW2 whole entry) above
T5 sequence (Q16531 whole entry partner): as the sequence (Q16531 whole entry partner) above
Summary of the method: as §2

GSPT1 = target: T6, GSPT1 (Homo sapiens, UniProt P15170+Q96SW2); experiment: Western blot degradation of GSPT1 in hPBMCs (24 h); assay type: cell-based; details: compounds at 50 nM and 500 nM
T6 construct: The supernatant was aspirated as the extracted total cell protein; endogenous in cells; host or cells: human peripheral blood mononuclear cells (hPBMCs)
T6 sequence (P15170 whole entry): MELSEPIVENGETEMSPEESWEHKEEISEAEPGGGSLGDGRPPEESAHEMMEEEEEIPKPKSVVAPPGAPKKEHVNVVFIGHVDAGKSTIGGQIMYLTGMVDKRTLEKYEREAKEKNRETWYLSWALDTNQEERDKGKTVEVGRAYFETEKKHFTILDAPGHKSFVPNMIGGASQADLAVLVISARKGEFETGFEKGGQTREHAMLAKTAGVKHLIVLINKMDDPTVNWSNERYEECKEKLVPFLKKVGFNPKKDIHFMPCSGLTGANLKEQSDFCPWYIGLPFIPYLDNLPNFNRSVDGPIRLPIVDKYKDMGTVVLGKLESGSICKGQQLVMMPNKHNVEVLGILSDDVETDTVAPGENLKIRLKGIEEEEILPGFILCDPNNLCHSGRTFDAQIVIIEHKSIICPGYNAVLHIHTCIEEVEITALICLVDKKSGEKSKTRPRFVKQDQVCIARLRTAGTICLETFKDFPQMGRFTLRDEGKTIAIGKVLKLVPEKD
T6 sequence (Q96SW2 whole entry): as the sequence (Q96SW2 whole entry) above
T6 sequence (Q16531 whole entry partner): as the sequence (Q16531 whole entry partner) above
Summary of the method: as §2

H292 cells = experiment: Inhibition of proliferation of human lung cancer cells H292 (CellTiter-Meiluncell Luminescent Cell Viability Assay, 96 h); assay type: cell-based
Protocol: as §1
(§3) The IC50 values of the compounds of the present disclosure (including the compounds in Table 1, and Examples 1-498) were determined using the CellTiter-Meiluncell Luminescent Cell Viability Assay Kit from Dalian Meilun Biotech Co., Ltd. The detailed procedure is as follows: Tumor cells were seeded in 96-well cell culture plates at the densities specified in Table 3. On the following day, the test compounds of the present disclosure were subjected to serial dilution. […] Subsequently, 0.5 μL of the test compound dilution was transferred into the 96-well plate containing the cells, with each well containing 100 μL of cell culture medium. […]
(§4) 0.5 μL of the aforementioned diluted compound of the present disclosure (including the compounds in Table 1, and Examples 1-498) was added to the seeded cells in 100 μL of medium, yielding a final test compound concentration of 10 nM. […] The growth inhibition curves for the compounds of the present disclosure were plotted using Prism GraphPad software, and the IC50 values were calculated therefrom.

H2228 cells = experiment: Inhibition of proliferation of non-small cell lung cancer cells H2228 (cell viability assay, 96 h); assay type: cell-based, human
Protocol: as §1, §3, §4

MDA-MB-231 cells = experiment: Inhibition of proliferation of breast cancer cells MDA-MB-231 (cell viability assay, 96 h); assay type: cell-based, human
Protocol: as §1, §3, §4

SMILES | IC50 (MM.1S cells) | IC50 (MGC803 cells) | IC50 (Jurkat cells) | WEE1 substrate protein remaining % (WEE1) | IKZF1 substrate protein remaining % (IKZF1) | IKZF2 substrate protein remaining % (IKZF2) | IKZF3 substrate protein remaining % (IKZF3) | CK1α substrate protein remaining % (CK1α) | GSPT1 substrate protein remaining % (GSPT1) | Inhibition Rate at 10 nM (%) (H292 cells; H292, 10 nM) | Inhibition Rate at 500 nM (%) (H292 cells; H292, 500 nM) | Inhibition Rate at 10 nM (%) (H2228 cells; H2228, 10 nM) | Inhibition Rate at 500 nM (%) (H2228 cells; H2228, 500 nM) | Inhibition Rate at 10 nM (%) (MDA-MB-231 cells; MDA-MB-231, 10 nM) | Inhibition Rate at 500 nM (%) (MDA-MB-231 cells; MDA-MB-231, 500 nM)
Cc1cscc1C1=CCN(Cc2ccc3c(c2)CN(N2CCC(=O)NC2=O)C3=O)CC1 [GT-04872, 1-(5-((4-(4-methylthiophen-3-yl)-3,6-dihydropyridin-1(2H)-yl)methyl)-1-oxoisoindolin-2-yl)dihydropyrimidine-2,4(1H,3H)-dione] | 10 to 50 nM | 100 to 300 nM | 100 to 300 nM | A (0% ≤ substrate protein remaining % ≤80%) | A (0% ≤ substrate protein remaining % ≤80%) | B (80%< substrate protein remaining % ≤100%) | B (80%< substrate protein remaining % ≤100%) | B (80%< substrate protein remaining % ≤100%) | A (0% ≤ substrate protein remaining % ≤80%) |  |  |  |  |  | 
Cc1cc(C2=CCN(Cc3ccc4c(c3)CN(N3CCC(=O)NC3=O)C4=O)CC2)cs1 [GT-04873, 1-(5-((4-(5-methylthiophen-3-yl)-3,6-dihydropyridin-1(2H)-yl)methyl)-1-oxoisoindolin-2-yl)dihydropyrimidine-2,4(1H,3H)-dione] | 50 to 100 nM | 100 to 300 nM | 100 to 300 nM | A (0% ≤ substrate protein remaining % ≤80%) | A (0% ≤ substrate protein remaining % ≤80%) | B (80%< substrate protein remaining % ≤100%) | A (0% ≤ substrate protein remaining % ≤80%) | B (80%< substrate protein remaining % ≤100%) | A (0% ≤ substrate protein remaining % ≤80%) |  |  |  |  |  | 
O=C1CCN(N2Cc3cc(CN4CCN(C(c5ccccc5)c5ccccc5)CC4)ccc3C2=O)C(=O)N1 [GT-04889, 1-(5-((4-benzhydrylpiperazin-1-yl)methyl)-1-oxoisoindolin-2-yl)dihydropyrimidine-2,4(1H,3H)-dione] | 100 to 300 nM | 300 to 500 nM | 300 to 500 nM | A (0% ≤ substrate protein remaining % ≤80%) | A (0% ≤ substrate protein remaining % ≤80%) | A (0% ≤ substrate protein remaining % ≤80%) | A (0% ≤ substrate protein remaining % ≤80%) | B (80%< substrate protein remaining % ≤100%) | A (0% ≤ substrate protein remaining % ≤80%) |  |  |  |  |  | 
O=C1CCN(N2Cc3cc(CN4CCC(N(c5ccccc5)c5ccccc5)CC4)ccc3C2=O)C(=O)N1 [GT-04939, 1-(5-((4-(diphenylamino)piperidin-1-yl)methyl)-1-oxoisoindolin-2-yl)dihydropyrimidine-2,4(1H,3H)-dione] | 10 to 50 nM | 100 to 300 nM | 100 to 300 nM | A (0% ≤ substrate protein remaining % ≤80%) | A (0% ≤ substrate protein remaining % ≤80%) | A (0% ≤ substrate protein remaining % ≤80%) | A (0% ≤ substrate protein remaining % ≤80%) | A (0% ≤ substrate protein remaining % ≤80%) | A (0% ≤ substrate protein remaining % ≤80%) |  |  |  |  |  | 
O=C1CCN(N2Cc3cc(CN4CCC(N(c5ccccc5)c5ccccn5)CC4)ccc3C2=O)C(=O)N1 [GT-04940, 1-(1-oxo-5-((4-(phenyl(pyridin-2-yl)amino)piperidin-1-yl)methyl)isoindolin-2-yl)dihydropyrimidine-2,4(1H,3H)-dione] | 50 to 100 nM | 100 to 300 nM | 100 to 300 nM | A (0% ≤ substrate protein remaining % ≤80%) | A (0% ≤ substrate protein remaining % ≤80%) | A (0% ≤ substrate protein remaining % ≤80%) | A (0% ≤ substrate protein remaining % ≤80%) | A (0% ≤ substrate protein remaining % ≤80%) | A (0% ≤ substrate protein remaining % ≤80%) |  |  |  |  |  | 
O=C1CCN(N2Cc3cc(CN4CCC(Nc5ccccc5-c5ccc(Cl)cc5)CC4)ccc3C2=O)C(=O)N1 [GT-04943, 1-(5-((4-((4′-chloro-[1,1′-biphenyl]-2-yl)amino)piperidin-1-yl)methyl)-1-oxoisoindolin-2-yl)dihydropyrimidine-2,4(1H,3H)-dione] | 10 to 50 nM | 100 to 300 nM | 100 to 300 nM | A (0% ≤ substrate protein remaining % ≤80%) | A (0% ≤ substrate protein remaining % ≤80%) | A (0% ≤ substrate protein remaining % ≤80%) | A (0% ≤ substrate protein remaining % ≤80%) | B (80%< substrate protein remaining % ≤100%) | A (0% ≤ substrate protein remaining % ≤80%) |  |  |  |  |  | 
Nc1cccc2c1CN(C1CCC(=O)NC1=O)C2=O (stereo not drawn) [lenalidomide, reference compound] |  |  |  |  |  |  |  |  |  | b1 (0 < b1 <1%) | b3 (5% ≤ b3 <10%) | d5 (20% ≤ d5 <25%) | d4 (15% ≤ d4 <20%) | f4 (15% ≤ f4 <18%) | f3 (10% ≤ f3 < 15%)
